The text below walks through data of patent US8580940B2, “Photoporphyrinogen oxidase having activity of imparting resistance against acifluorfen and gene thereof” (Nippon Soda Co., Ltd., priority 2005, dated 2013).

The structures appear in SMILES notation.

For test [1], the target named is ATΔslr1790 strain (AT strain in which slr1790 gene was disrupted). In words: Test for inhibitory potency of protoporphyrinogen oxidase inhibitor, growth (turbidity) of ATΔslr1790 strain. In kind it is cell-based, Synechocystis PCC6803. To be noted: turbidity 6 days after start, 30° C., 1000 lux, BG11 liquid medium, pI50 = -log(concentration to inhibit 50% activity (M)); for IC50: Synechocystis, 144 h. Here is the method: (§1) The AT strain obtained in Example 1 and ATΔslr1790 strain, in which slr1790 gene was disrupted by the method described in Example 4, were used. Aforedescribed BG11 liquid medium was employed. With a view to preventing reverse mutation or loss of the gene, either chloramphenicol or kanamycin was added to the medium at a final concentration of 25 μM for the AT strain and ATΔslr1790 strain, respectively, because a chloramphenicol resistance gene is introduced with protoporphyrinogen oxidase into AT strain and a kanamycin resistance gene is introduced into ATΔslr1790 strain when disrupting the gene. AT strain and ATΔslr1790 strain were precultured with shaking in BG11 liquid medium, collected during the growth phase, and suspended in fresh BG11 liquid medium supplemented with an antibiotic so that A730 became 0.1, which was used for investigation.
(§2) An active pharmaceutical ingredient of a test chemical was dissolved in DMSO and added to wells so that final concentration of agent became from 1.0×10^−4 M to 1.0×10^−9.5 M for each well (the final concentration of DMSO is 0.5%). The test includes shaking culture using a 96-well plate in a scale of 100 μl in each well at 30° C. of incubation temperature under 1000 lux of light intensity. Turbidity was measured 6 days after the start of the test and compared with solvent sample to calculate pI50 value. pI50 value=−log(concentration to inhibit 50% activity(M)) (Activity of Herbicidal Treatment)

In test [2] the target is AT strain (transgenic Synechocystis strain expressing Arabidopsis-derived protoporphyrinogen oxidase). In words: microbe, parasite or virus in culture. In kind it is cell-based, Synechocystis PCC6803. To be noted: for IC50: Synechocystis, 144 h, read-out: pI50 Value AT strain. Here is the method: as §1, §2
A further test relates to Amaranthus lividus. In words: Herbicidal activity, foliage treatment. In kind it is in vivo. To be noted: foliage spray, two weeks after the treatment, index 0-10. Here is the method: Seeds of Amaranthus lividus were sowed on the surface of soil filled in a pot (200 cm^2) followed by covering with a little soil and then grown to 5 to 10 cm of plant length in a greenhouse. Each of water-diluted test chemical solutions was sprayed to foliage part of Amaranthus lividus with a small spray in an amount corresponding to the spray amount of 1000 litter/ha to achieve predetermined amount of agent. Cultivation was carried out in a greenhouse. Then herbicidal effect on Amaranthus lividus was examined two weeks after the treatment according to an examination criterion below.
Values 1, 3, 5, 7, and 9 indicate the intermediate value of […], 4 and 6, 6 and 8, and 8 and 10 respectively.

For the next test, the system named is Arabidopsis wild type. In words: Acifluorfen resistance test, degree of necrosis on leaves, wild type. The class given is in vivo. Particulars: acifluorfen 10 μM, 5 μl dropped onto leaves, 7 days after treatment, by eye on a 0 to 5 scale (5 complete death, 0 no effect). Here is the method:
(§3) For transformants in which gene introduction was confirmed, acifluorfen resistance effect was tested. Acifluorfen was prepared as emulsion to contain 4% of effective component by mixing and solubilizing dimethylformamide and polyoxyethylene sorbitan surfactant. This was diluted with water to make the final concentration of acifluorfen 10 μM, 5 μl of which was dropped using a micropippet onto leaves of Arabidopsis wild type and transformed Arabidopsis slr lineage, in which gene introduction was confirmed, both grown to 1 to 2 cm in height in a growth chamber.
(§4) Study was continued until 7 days after the treatment with the chemicals and degree of necrosis was evaluated by eye (on a 0 to 5 scale, 0 means no effect).
(§5) Evaluation was done by eye on a 0 to 5 scale, with 5 meaning complete death and 0 meaning no effect.

Test [3] concerns transformed Arabidopsis slr lineage (slr1790-introduced). The test can be described thus: Acifluorfen resistance test, degree of necrosis on leaves, slr1790-introduced transformants. The class given is in vivo. Particulars: acifluorfen 10 μM, 5 μl dropped onto leaves, 7 days after treatment, by eye on a 0 to 5 scale (5 complete death, 0 no effect). Here is the method:
as §3, §4, §5

Turning to `C#CCN1C(=O)COc2cc(F)c(N3C(=O)C4=C(CCCC4)C3=O)cc21` [flumioxazine], the “pI50 Value ATΔslr1790 strain” value in test [1] is on record as 6.7. The “pI50 Value AT strain” value in test [2] (turbidity 6 days after start, 30° C., 1000 lux, BG11 liquid medium, pI50 = -log(concentration to inhibit 50% activity (M))) was 4>. Moreover, the “Herbicidal activity (foliage treatment) (herbicide index for Amaranthus lividus, 16 g ai/ha)” value with Amaranthus lividus is on record as 10 (100%).
Regarding `c1cc[n+]2c(c1)-c1cccc[n+]1CC2` [diquat], the IC50 in test [1] was 1e-05 M; in test [2] it was 6.31 µM.
In the case of `CCOC(=O)COc1cc(-c2nn(C)c(OC(F)F)c2Cl)c(F)cc1Cl` [pyraflufenethyl, pyraflufen-ethyl], the IC50 is 2.51e-07 M in test [1] and over 100 µM in test [2]. The “Herbicidal activity (foliage treatment) (herbicide index for Amaranthus lividus, 16 g ai/ha)” value in the test with Amaranthus lividus was 10 (100%).
Regarding `O=C(O)c1cc(Oc2ccc(C(F)(F)F)cc2Cl)ccc1[N+](=O)[O-]` [acifluorfen], the “degree of necrosis, Arabidopsis Wild Type” value with Arabidopsis wild type worked out at 4. The IC50 is 3.16e-05 M in test [1] and over 100 µM in test [2]. Also, in the test with Amaranthus lividus, the “Herbicidal activity (foliage treatment) (herbicide index for Amaranthus lividus, 16 g ai/ha)” value amounted to 7. Also, the “degree of necrosis, slr 52” value in test [3] (transformant slr 52) is on record as 1. Besides, the “degree of necrosis, slr 146” value in test [3] (transformant slr 146) amounted to 1.
